Data as given in US20130065936A1, “MODULATION OF BIOACTIVE EPOXY-FATTY ACID LEVELS BY PHOSPHODIESTERASE INHIBITORS” (THE REGENTS OF THE UNIVERSITY OF CALIFORNIA, priority 2010, published 2013).

Experiments:
Sprague-Dawley rats [1] = assay: Acute nociceptive responses in healthy rats, Hargreaves thermal withdrawal latency; type: in vivo, rat; details: for antagonism of / interaction with rolipram-produced increase in thermal withdrawal latency: Hargreaves, celecoxib 20, fluconazole 40, micanozole 40, finasteride 10, picrotoxin 0.25 mg/kg
[2] = tested on: endogenous oxylipin sEH substrates and products in rat plasma; assay: Oxylipin analysis in rat plasma after sEHI / PDE inhibitor administration (LC-ESI-MS/MS); type: in vivo; details: rat plasma 45 min after s.c.; 1 mg/kg, pentoxyphilline 10 mg/kg;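 also: plasma from tail vein blood, oxylipins quantified by LC-ESI-MS/MS against deuterated internal standards following solid-phase extraction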
sEH = target: T1, sEH (Homo sapiens, UniProt P34913); assay: sEH inhibition as stated in the general description (earlier tests, '506 patent); type: biochemical
T1 sequence (P34913 1-555): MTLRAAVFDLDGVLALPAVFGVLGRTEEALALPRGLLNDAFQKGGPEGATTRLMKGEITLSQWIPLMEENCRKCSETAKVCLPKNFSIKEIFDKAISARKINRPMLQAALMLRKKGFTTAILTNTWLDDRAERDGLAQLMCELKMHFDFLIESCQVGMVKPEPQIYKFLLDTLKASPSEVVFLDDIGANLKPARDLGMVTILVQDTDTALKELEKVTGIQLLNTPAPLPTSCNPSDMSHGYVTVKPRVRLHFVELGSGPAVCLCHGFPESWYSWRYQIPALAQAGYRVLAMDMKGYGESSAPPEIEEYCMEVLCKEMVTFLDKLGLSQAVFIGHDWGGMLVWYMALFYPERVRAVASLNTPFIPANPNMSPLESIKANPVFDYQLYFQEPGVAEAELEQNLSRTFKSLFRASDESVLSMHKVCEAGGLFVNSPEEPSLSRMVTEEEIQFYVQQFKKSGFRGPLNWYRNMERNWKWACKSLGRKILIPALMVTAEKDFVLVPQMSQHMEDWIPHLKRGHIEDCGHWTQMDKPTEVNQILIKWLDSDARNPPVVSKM

Sprague-Dawley rats [3] = assay: Acute nociceptive responses in healthy rats, Randall-Selitto mechanical sensitivity assay; type: in vivo, rat; details: picrotoxin 0.25 mg/kg s.c.
Sprague-Dawley rats [4] = assay: Open field activity; type: in vivo, rat; details: 1 h following administration
Method: For the measurement of open field activity animals were placed in an acrylic chamber (40×40×20 cm length×width×height) divided into 100 cm^2 (10×10 cm) sections. The number of crossings were recorded when both hind paws crossed into a neighboring cell.

In the case of Clc1ccc(COC(Cn2ccnc2)c2ccc(Cl)cc2Cl)c(Cl)c1 (stereo not drawn) [micanozole], the “antagonism of / interaction with rolipram-produced increase in thermal withdrawal latency” value (Sprague-Dawley rats [1]) is reported as “lack of antagonism”.

In the case of CCc1ccc2c(-c3cccc(Cl)c3)nc(=O)n(CC)c2n1 [YM976], the “8(9)-EpETE” value [2] is reported as 2.74 nM, the “8(9)-EpETrE” value [2] is reported as 13.59 nM and the “8,9-DiHETE” value [2] is reported as 0.29 nM. For the same compound, the “8,9-DiHETrE” value [2] was 0.58 nM, the “9(10)-EpOME” value [2] was 147.05 nM and the “9,10-DiHOME” value [2] was 37.07 nM. The “10(11)-EpDPE” value [2] was 20.16 nM, the “10,11-DiHDPE” value [2] was 0.82 nM and the “11(12)-EpETE” value [2] was 2.23 nM. The “11(12)-EpETrE” value [2] was 22.80 nM, the “11,12-DiHETE” value [2] was 0.48 nM and the “11,12-DiHETrE” value [2] was 1.55 nM. The “12(13)-EpOME” value [2] was 159.31 nM, the “12,13-DiHOME” value [2] was 57.32 nM and the “13(14)-EpDPE” value [2] was 10.28 nM. The “13,14-DiHDPE” value [2] was 0.81 nM, the “14(15)-EpETE” value [2] was 1.99 nM and the “14(15)-EpETrE” value [2] was 26.50 nM. The “14,15-DiHETE” value [2] was 1.19 nM, the “14,15-DiHETrE” value [2] was 1.84 nM and the “16(17)-EpDPE” value [2] was 10.41 nM. For the same compound, the “16,17-DiHDPE” value [2] was 2.22 nM, the “17(18)-EpETE” value [2] was 4.49 nM and the “17,18-DiHETE” value [2] was 2.95 nM. For the same compound, the “19(20)-EpDPE” value [2] was 18.10 nM, the “19,20-DiHDPE” value [2] was 6.24 nM and the “Ratio 8(9)-EpETE / 8,9-DiHETE” value [2] was 9.62. The “Ratio 8(9)-EpETrE / 8,9-DiHETrE” value [2] was 23.44, the “Ratio 9(10)-EpOME / 9,10-DiHOME” value [2] was 3.97 and the “Ratio 10(11)-EpDPE / 10,11-DiHDPE” value [2] was 24.59. For the same compound, the “Ratio 11(12)-EpETE / 11,12-DiHETE” value [2] was 4.69, the “Ratio 11(12)-EpETrE / 11,12-DiHETrE” value [2] was 14.76 and the “Ratio 12(13)-EpOME / 12,13-DiHOME” value [2] was 2.78. The “Ratio 13(14)-EpDPE / 13,14-DiHDPE” value [2] was 12.66, the “Ratio 14(15)-EpETE / 14,15-DiHETE” value [2] was 1.67 and the “Ratio 14(15)-EpETrE / 14,15-DiHETrE” value [2] was 14.43. For the same compound, the “Ratio 16(17)-EpDPE / 16,17-DiHDPE” value [2] was 4.68, the “Ratio 17(18)-EpETE / 17,18-DiHETE” value [2] was 1.52 and the “Ratio 19(20)-EpDPE / 19,20-DiHDPE” value [2] was 2.90. For the same compound, the “total Di-hydroxyeicosanoid” value [2] was 423.59 nM, the “total Epoxyeicosanoid” value [2] was 535.16 nM and the “total Ratio epoxy/dihydroxy eicosanoids” value [2] was 1.26.

CCCCCCCCCCCCNC(=O)NC12CC3CC(CC(C3)C1)C2 [ADU, N-Adamantyl-N′-dodecyl urea] was tested, and the “activity as inhibitor of sEH” value (sEH) was “particularly high activity on sEH”.

For CN(C(=O)CCCOc1ccc2[nH]c(=O)ccc2c1)C1CCCCC1 [Cilostamide], the “8(9)-EpETE” value [2] was 0.74 nM, the “8(9)-EpETrE” value [2] was 3.13 nM and the “8,9-DiHETE” value [2] was 0.27 nM. For the same compound, the “8,9-DiHETrE” value [2] was 0.47 nM, the “9(10)-EpOME” value [2] was 32.41 nM and the “9,10-DiHOME” value [2] was 29.53 nM. For the same compound, the “10(11)-EpDPE” value [2] was 4.06 nM, the “10,11-DiHDPE” value [2] was 0.66 nM and the “11(12)-EpETE” value [2] was 0.45 nM. The “11(12)-EpETrE” value [2] was 4.44 nM, the “11,12-DiHETE” value [2] was 0.43 nM and the “11,12-DiHETrE” value [2] was 1.60 nM. For the same compound, the “12(13)-EpOME” value [2] was 51.82 nM, the “12,13-DiHOME” value [2] was 37.98 nM and the “13(14)-EpDPE” value [2] was 2.23 nM. For the same compound, the “13,14-DiHDPE” value [2] was 0.73 nM, the “14(15)-EpETE” value [2] was 0.49 nM and the “14(15)-EpETrE” value [2] was 7.71 nM. For the same compound, the “14,15-DiHETE” value [2] was 1.24 nM, the “14,15-DiHETrE” value [2] was 1.82 nM and the “16(17)-EpDPE” value [2] was 2.94 nM. For the same compound, the “16,17-DiHDPE” value [2] was 2.28 nM, the “17(18)-EpETE” value [2] was 2.66 nM and the “17,18-DiHETE” value [2] was 3.08 nM. For the same compound, the “19(20)-EpDPE” value [2] was 8.95 nM, the “19,20-DiHDPE” value [2] was 5.50 nM and the “Ratio 8(9)-EpETE / 8,9-DiHETE” value [2] was 2.81. For the same compound, the “Ratio 8(9)-EpETrE / 8,9-DiHETrE” value [2] was 6.69, the “Ratio 9(10)-EpOME / 9,10-DiHOME” value [2] was 1.10 and the “Ratio 10(11)-EpDPE / 10,11-DiHDPE” value [2] was 6.13. For the same compound, the “Ratio 11(12)-EpETE / 11,12-DiHETE” value [2] was 1.04, the “Ratio 11(12)-EpETrE / 11,12-DiHETrE” value [2] was 2.78 and the “Ratio 12(13)-EpOME / 12,13-DiHOME” value [2] was 1.36. For the same compound, the “Ratio 13(14)-EpDPE / 13,14-DiHDPE” value [2] was 3.05, the “Ratio 14(15)-EpETE / 14,15-DiHETE” value [2] was 0.39 and the “Ratio 14(15)-EpETrE / 14,15-DiHETrE” value [2] was 4.24. The “Ratio 16(17)-EpDPE / 16,17-DiHDPE” value [2] was 1.29, the “Ratio 17(18)-EpETE / 17,18-DiHETE” value [2] was 0.86 and the “Ratio 19(20)-EpDPE / 19,20-DiHDPE” value [2] was 1.63. For the same compound, the “total Di-hydroxyeicosanoid” value [2] was 322.82 nM, the “total Epoxyeicosanoid” value [2] was 1014.12 nM and the “total Ratio epoxy/dihydroxy eicosanoids” value [2] was 3.14.

picrotoxin was tested, and the “antagonism of / interaction with rolipram-produced increase in thermal withdrawal latency” value (Sprague-Dawley rats [1]) was “partially blocked rolipram”, the “thermal withdrawal latency / pain related behavior, change from predrug baseline” value (Sprague-Dawley rats [1]; healthy rats, s.c., about 1 h after administration) was “ineffective on its own in changing pain related behavior” and the “antagonism of the increase in thermal withdrawal latency produced by rolipram/AUDA” value (Sprague-Dawley rats [1]; picrotoxin 0.25 mg/kg s.c.) was “effectively antagonized”. For the same compound, the “antagonism of the increase in mechanical withdrawal threshold produced by rolipram/AUDA” value (Sprague-Dawley rats [3]) was “effectively antagonized”.

In the case of CC(=O)N1CCC(NC(=O)Nc2ccc(OC(F)(F)F)cc2)CC1 [TPAU], the “voluntary movement in an open-field chamber (motor depressant effect)” value (Sprague-Dawley rats [4]) is reported as “indistinguishable from baseline activity”.

In the case of CC(=O)CCCCn1c(=O)c2c(ncn2C)n(C)c1=O [Pentoxyphilline], the “8(9)-EpETE” value [2] is reported as 1.27 nM, the “8(9)-EpETrE” value [2] is reported as 6.41 nM and the “8,9-DiHETE” value [2] is reported as 0.30 nM. For the same compound, the “8,9-DiHETrE” value [2] was 0.54 nM, the “9(10)-EpOME” value [2] was 59.92 nM and the “9,10-DiHOME” value [2] was 34.24 nM. The “10(11)-EpDPE” value [2] was 7.86 nM, the “10,11-DiHDPE” value [2] was 0.71 nM and the “11(12)-EpETE” value [2] was 0.80 nM. For the same compound, the “11(12)-EpETrE” value [2] was 10.60 nM, the “11,12-DiHETE” value [2] was 0.45 nM and the “11,12-DiHETrE” value [2] was 1.77 nM. The “12(13)-EpOME” value [2] was 87.05 nM, the “12,13-DiHOME” value [2] was 50.89 nM and the “13(14)-EpDPE” value [2] was 4.20 nM. For the same compound, the “13,14-DiHDPE” value [2] was 0.79 nM, the “14(15)-EpETE” value [2] was 0.69 nM and the “14(15)-EpETrE” value [2] was 14.76 nM. For the same compound, the “14,15-DiHETE” value [2] was 1.06 nM, the “14,15-DiHETrE” value [2] was 1.73 nM and the “16(17)-EpDPE” value [2] was 5.07 nM. For the same compound, the “16,17-DiHDPE” value [2] was 2.20 nM, the “17(18)-EpETE” value [2] was 3.08 nM and the “17,18-DiHETE” value [2] was 2.81 nM. The “19(20)-EpDPE” value [2] was 12.04 nM, the “19,20-DiHDPE” value [2] was 6.00 nM and the “Ratio 8(9)-EpETE / 8,9-DiHETE” value [2] was 4.15. The “Ratio 8(9)-EpETrE / 8,9-DiHETrE” value [2] was 11.91, the “Ratio 9(10)-EpOME / 9,10-DiHOME” value [2] was 1.75 and the “Ratio 10(11)-EpDPE / 10,11-DiHDPE” value [2] was 11.13. The “Ratio 11(12)-EpETE / 11,12-DiHETE” value [2] was 1.79, the “Ratio 11(12)-EpETrE / 11,12-DiHETrE” value [2] was 6.00 and the “Ratio 12(13)-EpOME / 12,13-DiHOME” value [2] was 1.71. The “Ratio 13(14)-EpDPE / 13,14-DiHDPE” value [2] was 5.30, the “Ratio 14(15)-EpETE / 14,15-DiHETE” value [2] was 0.66 and the “Ratio 14(15)-EpETrE / 14,15-DiHETrE” value [2] was 8.52. For the same compound, the “Ratio 16(17)-EpDPE / 16,17-DiHDPE” value [2] was 2.30, the “Ratio 17(18)-EpETE / 17,18-DiHETE” value [2] was 1.10 and the “Ratio 19(20)-EpDPE / 19,20-DiHDPE” value [2] was 2.01. For the same compound, the “total Di-hydroxyeicosanoid” value [2] was 423.15 nM, the “total Epoxyeicosanoid” value [2] was 497.36 nM and the “total Ratio epoxy/dihydroxy eicosanoids” value [2] was 1.18.

In the case of CC(C)(C)NC(=O)[C@H]1CC[C@H]2[C@@H]3CC[C@H]4NC(=O)C=C[C@]4(C)[C@H]3CC[C@]12C [finasteride], the “antagonism of / interaction with rolipram-produced increase in thermal withdrawal latency” value (Sprague-Dawley rats [1]) is reported as “competitive antagonism”.

In the case of OC(Cn1cncn1)(Cn1cncn1)c1ccc(F)cc1F [fluconazole], the “antagonism of / interaction with rolipram-produced increase in thermal withdrawal latency” value (Sprague-Dawley rats [1]) is reported as “Noncompetitive antagonism”.
